The nature of data set [1]: Acute toxicity, LD50 to mouse by intraperitoneal injection (Table 3). The following applies: in vivo, ip. As to the method:
LD50 of each sample to mouse was measured by intraperitoneal injection of each sample.

The next data set has as its system cancer cell W-2K-11. The experiment in a line: Growth inhibition of cancer cell W-2K-11 (percent inhibition of cell multiplication, Table 2). The data set is classed as cell-based, mouse. The protocol:
Cancer cell W-2K-11 was obtained by transforming fibroblast C3H-2K clone derived from kidney of mouse by cancerogenic virus. The cancer cell W-2K-11 was cultured by the following method.
(1) Preparation of culture medium
9.4 Gram of Eagle's MEM culture media (manufactured by Nissui Seiyaku K. K.) was dissolved in 900 ml. of distilled water and the solution was sterilized under high pressure at 120° C. for 15 minutes and cooled. 100 Ml. of calf serum and 3-5 ml. of 10% aqueous solution of sodium bicarbonate were added to the solution to adjust pH to 7.1-7.2. 10 Ml. of an aqueous solution of L-glutamine (2.92 g./100 ml.) filtered by a millipore filter was added just before the use of the solution as culture medium.
(2) Preparation of transplanted cell solution
The cancer cell W-2K-11 stored in a freezer at -80° C. was melted at room temperature and treated by a centrifugal separator at 670 g. for 5 minutes. The precipitated cell was dispersed in 50 ml. of the culture medium (1). The suspension was charged into Roux flask and cultured at 37° C. The multiplication of the cells was initiated and accomplished after 3 to 4 days. The cultured mixture was decanted and 10 ml. of 0.2% trypsin solution was added and the mixture was kept at room temperature for 2 to 3 minutes and the trypsin mixture was decanted and then, 50 ml. of the culture medium (1) was added to prepare a suspension of cells.
(3) Incubation of cells and addition of sample
1.8 Ml. of the suspension of cells (2) was charged into each Petri dish and incubated in a carbon dioxide gas incubator (5% of CO2; 95% of air) at 37° C. Twenty four hours after the initiation of the incubation, 0.2 ml. of each ethanol solution of each sample was added, and the incubation was continued. Forty eight hours after the addition of the sample, numbers of survival cells were counted under a microscopic observation and each percent inhibition of cell multiplication was calculated. [formula]

The mark [2] stands for this setting: Mus musculus, concentration 1 μg/ml, 48 hours after addition of sample, W-2K-11 cells, read-out: Percent inhibition (%).
[3] abbreviates: Mus musculus, concentration 10 μg/ml, 48 hours after addition of sample, W-2K-11 cells, read-out: Percent inhibition (%).

A word on the LD50: it is the dose expected to kill half of the subjects tested. The low end stands for a more toxic substance, the high end for a less toxic substance. What is called inhibition is the relative decrease from the control value, in per cent.

Read-outs that look alike come from different tables or passages of the source. Some results are limits rather than exact numbers.

In data set [1], `COC1=C2CC(C)CC(OC)C(O)C(C)C3OC3(C)C(OC(N)=O)C(OC)C=CC=C(C)C(=O)NC(=CC1=O)C2=O` (stereo not shown) [Example 45, 8,9-epoxy-Geldanamycin] yielded an LD50 of 240 mg/kg. Also, the inhibition at 1 µg/mL in the data set on cancer cell W-2K-11 (setting [2]) was determined as 95%. Besides, the inhibition at 10 µg/mL in the data set with cancer cell W-2K-11 (setting [3]) worked out at 100%.

For the compound `COC1=C2CC(C)CC(OC)C(O)C(C)C=C(C)C(OC(N)=O)C(OC)C=CC=C(C)C(=O)N(C)C(=CC1=O)C2=O` (stereo not shown) [Example 41, 21-N-methyl-Geldanamycin], the LD50 in data set [1] worked out at 120 mg/kg. In the data set on cancer cell W-2K-11 (setting [3]), the inhibition at 10 µg/mL was 82%. `COC1=C2CC(C)CC(OC)C(O)C(C)C=C(C)C(OC(N)=O)C(OC)C=CC=C(C)C(=O)NC(=C(N(C)C)C1=O)C2=O` (stereo not shown) [Example 36, 19-dimethylamino-Geldanamycin]: the LD50 in data set [1] was over 240 mg/kg. Besides, in the data set on cancer cell W-2K-11 (setting [2]), the inhibition at 1 µg/mL is 70%. In addition, the inhibition at 10 µg/mL in the data set on cancer cell W-2K-11 (setting [3]) was 84%. On to `COC1=C2C[C@@H](C)C[C@H](OC)[C@H](O)[C@@H](C)/C=C(\C)[C@H](OC(N)=O)[C@@H](OC)/C=C\C=C(/C)C(=O)NC(=CC1=O)C2=O` [Geldanamycin], for which, in data set [1], the LD50 was found to be 15 mg/kg. Moreover, 1.2 µg/mL produced 61% inhibition with cancer cell W-2K-11 (Mus musculus, concentration 1.2 μg/ml, 48 hours after addition of sample, W-2K-11 cells). Turning to `CCNC1=C2CC(C)CC(OC)C(O)C(C)/C=C(\C)C(OC(N)=O)C(OC)/C=C\C=C(/C)C(=O)NC(=CC1=O)C2=O` (stereo not shown) [Example 3], the LD50 in data set [1] came out at 120 mg/kg. Moreover, the inhibition at 1 µg/mL with cancer cell W-2K-11 (setting [2]) was found to be 90%. Turning to `COC1C=CC=C(C)C(=O)NC2=CC(=O)C(NCC34CC5CC(CC(C5)C3)C4)=C(CC(C)CC(OC)C(O)C(C)C=C(C)C1OC(N)=O)C2=O` (stereo not shown) [Example 17], the “Percent inhibition (%)” value in the data set on cancer cell W-2K-11 (concentration 10 μg/ml, 48 hours after addition of sample, W-2K-11 cells) came to 98%. For the compound `CNC(=O)OC1C(C)=CC(C)C(O)C(OC)CC(C)CC2=C(OC)C(=O)C=C(C2=O)N(C)C(=O)C(C)=CC=CC1OC` (stereo not shown) [Example 42, 21-N-methyl-7-OCONH-methyl-Geldanamycin], the inhibition at 1 µg/mL in the data set with cancer cell W-2K-11 (setting [2]) was determined as 82%. Further, the inhibition at 10 µg/mL in the data set with cancer cell W-2K-11 (setting [3]) was 94%.

Regarding `COC1/C=C\C=C(/C)C(=O)NC2=CC(=O)C(N3CC3)=C(CC(C)CC(OC)C(O)C(C)/C=C(\C)C1OC(N)=O)C2=O` (stereo not shown) [Example 2, 17-ethyleneimino-Geldenamycin], the inhibition at 1 µg/mL in the data set on cancer cell W-2K-11 (Mus musculus, 48 h, read-out: Percent inhibition (%)) stood at 97%.

Turning to `COC1C=CC=C(C)C(=O)NC2=CC(=O)C(NCc3cccnc3)=C(CC(C)CC(OC)C(O)C(C)C=C(C)C1OC(N)=O)C2=O` (stereo not shown) [Example 29], the inhibition at 5 µg/mL with cancer cell W-2K-11 (Mus musculus, concentration 5 μg/ml, 48 hours after addition of sample, W-2K-11 cells, read-out: Percent inhibition (%)) came to 92%.

As for `COC1=NC2=CC(=O)C(OC)=C(CC(C)CC(OC)C(O)C(C)C=C(C)C(OC(N)=O)C(OC)C=CC=C1C)C2=O` (stereo not shown) [Example 40, 1-O-methyl-Geldanamycin], the inhibition at 1 µg/mL in the data set with cancer cell W-2K-11 (setting [2]) worked out at 80%. For the same compound, the inhibition at 10 µg/mL in the data set with cancer cell W-2K-11 (setting [3]) came out at 95%.

(Values after patent US4261989A, “Geldanamycin derivatives and antitumor drug” (Kaken Chemical Co. Ltd., priority 1979, dated 1981).)
